Data as given in US20240270762A1, “PENICILLIN-BINDING PROTEIN INHIBITORS” (priority 2021, published 2024).
Converted amounts (≈) assume the structure as drawn.

Key:
[1] = molecular target: T1, PBP3 from Pseudomonas aeruginosa (PAO1) (Pseudomonas aeruginosa, UniProt G3XD46); assay: Bocillin-FL fluorescence polarization competition binding, P. aeruginosa PBP3; conditions: Binding affinity to P. aeruginosa PBP3; fluorescence polarization competition binding assay using Bocillin-FL; read-out: P. aeruginosa PBP3 Potency
T1 construct: made in house
T1 sequence (G3XD46 whole entry): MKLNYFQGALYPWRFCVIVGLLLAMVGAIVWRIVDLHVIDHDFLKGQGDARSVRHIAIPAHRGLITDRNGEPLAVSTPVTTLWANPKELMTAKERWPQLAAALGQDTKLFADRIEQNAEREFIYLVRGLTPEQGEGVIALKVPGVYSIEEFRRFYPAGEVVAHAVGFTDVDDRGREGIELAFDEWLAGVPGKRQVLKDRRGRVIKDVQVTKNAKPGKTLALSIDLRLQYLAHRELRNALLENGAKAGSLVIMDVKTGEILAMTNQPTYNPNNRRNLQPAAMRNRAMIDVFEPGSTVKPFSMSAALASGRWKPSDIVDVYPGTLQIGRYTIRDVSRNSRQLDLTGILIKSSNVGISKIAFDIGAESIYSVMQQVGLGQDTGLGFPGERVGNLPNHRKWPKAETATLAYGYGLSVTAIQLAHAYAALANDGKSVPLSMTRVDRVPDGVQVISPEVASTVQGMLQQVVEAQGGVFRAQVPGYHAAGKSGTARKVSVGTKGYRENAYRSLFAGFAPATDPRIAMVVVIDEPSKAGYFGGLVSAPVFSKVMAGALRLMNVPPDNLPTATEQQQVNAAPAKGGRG
In short: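 Purified PBPs pre-incubated with inhibitor (E. coli PBP3 1.5 μM, 30 min; P. aeruginosa PBP3 0.75 μM, A. baumannii PBP1a 1 μM and PBP3 0.2 μM, 15 min), then Bocillin-FL 0.1 μM (0.05 μM for PBP1a) added; FP read up to 60 min. EC50 = concentration halving bound Bocillin-FL.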

A. baumannii PBP1a = molecular target: T2, A. baumannii PBP1a (Acinetobacter baumannii, UniProt A0ABX6CK30); assay: Bocillin-FL competition binding via gel filtration, A. baumannii PBP1a; conditions: competition binding assay using Bocillin-FL via gel filtration; read-out: A. baumannii PBP1a Potency
T2 sequence (A0ABX6CK30 1-851): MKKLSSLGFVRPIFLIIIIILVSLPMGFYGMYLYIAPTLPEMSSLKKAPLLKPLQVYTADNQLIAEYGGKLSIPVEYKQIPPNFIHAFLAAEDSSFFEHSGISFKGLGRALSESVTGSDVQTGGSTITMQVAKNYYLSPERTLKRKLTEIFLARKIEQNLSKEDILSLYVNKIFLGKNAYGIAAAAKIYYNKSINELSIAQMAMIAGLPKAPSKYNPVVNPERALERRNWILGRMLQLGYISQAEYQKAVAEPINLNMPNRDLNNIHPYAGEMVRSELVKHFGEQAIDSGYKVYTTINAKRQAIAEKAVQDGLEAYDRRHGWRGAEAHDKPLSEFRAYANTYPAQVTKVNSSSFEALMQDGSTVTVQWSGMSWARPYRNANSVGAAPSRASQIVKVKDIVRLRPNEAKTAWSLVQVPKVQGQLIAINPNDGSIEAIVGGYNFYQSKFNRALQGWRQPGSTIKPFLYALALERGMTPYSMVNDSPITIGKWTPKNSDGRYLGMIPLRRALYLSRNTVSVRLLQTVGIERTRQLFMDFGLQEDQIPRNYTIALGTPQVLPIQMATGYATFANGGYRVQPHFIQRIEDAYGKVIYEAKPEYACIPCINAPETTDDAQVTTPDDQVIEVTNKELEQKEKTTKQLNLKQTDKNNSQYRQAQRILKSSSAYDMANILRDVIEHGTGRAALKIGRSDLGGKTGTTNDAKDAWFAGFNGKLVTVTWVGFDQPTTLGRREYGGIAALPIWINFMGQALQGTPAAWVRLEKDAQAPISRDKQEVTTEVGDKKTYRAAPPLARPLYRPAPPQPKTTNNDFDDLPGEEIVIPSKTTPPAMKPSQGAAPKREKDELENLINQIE
In short: (§1)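 Enzyme pre-incubated with increasing inhibitor concentrations, then Bocillin-FL added for 15 min further incubation. Bocillin-FL-bound PBP separated by gel filtration and fluorescence read. EC50 from fitting fraction PBP bound vs inhibitor concentration to a Hill-type equation (ymin, ymax, n).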

A. baumannii PBP2 = A. baumannii PBP2 (Acinetobacter baumannii, UniProt D0C8Z9); assay: Bocillin-FL competition binding via gel filtration, A. baumannii PBP2
Chain of A. baumannii PBP2 (D0C8Z9 whole entry): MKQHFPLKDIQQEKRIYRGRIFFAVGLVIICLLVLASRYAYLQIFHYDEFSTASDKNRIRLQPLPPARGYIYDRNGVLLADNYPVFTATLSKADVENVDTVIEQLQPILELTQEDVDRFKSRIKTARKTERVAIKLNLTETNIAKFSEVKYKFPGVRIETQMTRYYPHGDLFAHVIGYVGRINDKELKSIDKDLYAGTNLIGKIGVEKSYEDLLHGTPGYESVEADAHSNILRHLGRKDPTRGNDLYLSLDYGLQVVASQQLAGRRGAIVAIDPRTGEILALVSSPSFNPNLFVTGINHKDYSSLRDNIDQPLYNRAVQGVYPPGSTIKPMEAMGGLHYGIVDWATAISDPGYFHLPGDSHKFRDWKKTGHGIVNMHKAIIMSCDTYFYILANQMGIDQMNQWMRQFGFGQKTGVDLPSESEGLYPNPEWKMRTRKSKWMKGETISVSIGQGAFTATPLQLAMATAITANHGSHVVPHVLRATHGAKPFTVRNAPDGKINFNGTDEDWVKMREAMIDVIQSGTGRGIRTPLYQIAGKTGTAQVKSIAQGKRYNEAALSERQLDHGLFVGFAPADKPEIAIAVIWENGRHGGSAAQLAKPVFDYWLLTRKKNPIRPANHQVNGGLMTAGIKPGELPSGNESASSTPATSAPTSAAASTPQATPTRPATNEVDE
In short: as §1

P. aeruginosa CDC-0095 = assay: microbe, parasite or virus in culture; assay type: cell-based; conditions: Pseudomonas aeruginosa, CDC0095, read-out: Minimum inhibitory concentration, P. aeruginosa CDC-0095
A. baumannii CDC-0033 = assay: microbe, parasite or virus in culture; assay type: cell-based; conditions: Acinetobacter baumannii, CDC0033, read-out: MIC, A. baumannii CDC-0033
A. baumannii CDC-0045 = assay: microbe, parasite or virus in culture; assay type: cell-based; conditions: Acinetobacter baumannii, CDC0045, read-out: MIC, A. baumannii CDC-0045

O=C(NCCCS(=O)(=O)N1CCN(C(=O)NC(C(=O)N[C@H]2Cc3ccc(F)c(C(=O)O)c3OB2O)c2cc(F)c(O)c(O)c2Cl)C1=O)Nc1cccc(O)c1 (stereo partly drawn) [Example 277, (3R)-3-(2-(2-chloro-5-fluoro-3,4-dihydroxyphenyl)-2-(3-((3-(3-(3-hydroxyphenyl)ureido)propyl)sulfonyl)-2-oxoimidazolidine-1-carboxamido)acetamido)-7-fluoro-2-hydroxy-3,4-dihydro-2H-benzo[e][1,2]oxaborinine-8-carboxylic acid]
IC50 [1]: < 10 µM | EC50 (A. baumannii PBP1a): < 10 µM | EC50 (A. baumannii PBP2): < 10 µM | MIC (P. aeruginosa CDC-0095): 8 to 16 µg/mL (≈ 9.87 to 19.7 µM) | MIC (A. baumannii CDC-0033): 2 to 4 µg/mL (≈ 2.47 to 4.93 µM) | MIC (A. baumannii CDC-0045): 2 to 4 µg/mL (≈ 2.47 to 4.93 µM)

O=C(NCCN1CCN(C(=O)N[C@@H](C(=O)N[C@H]2Cc3ccc(F)c(C(=O)O)c3OB2O)c2cc(F)c(O)c(O)c2Cl)C1=O)Nc1ccc(O)cc1 [Example 279, (R)-3-((R)-2-(2-chloro-5-fluoro-3,4-dihydroxyphenyl)-2-(3-(2-(3-(4-hydroxyphenyl)ureido)ethyl)-2-oxoimidazolidine-1-carboxamido)acetamido)-7-fluoro-2-hydroxy-3,4-dihydro-2H-benzo[e][1,2]oxaborinine-8-carboxylic acid]
IC50 [1]: < 10 µM | EC50 (A. baumannii PBP1a): < 10 µM | EC50 (A. baumannii PBP2): 10 to 50 µM | MIC (P. aeruginosa CDC-0095): 2 to 4 µg/mL (≈ 2.73 to 5.46 µM) | MIC (A. baumannii CDC-0033): 2 to 4 µg/mL (≈ 2.73 to 5.46 µM) | MIC (A. baumannii CDC-0045): < 1 µg/mL

O=C(NCCCN1CCN(C(=O)NC(C(=O)N[C@H]2Cc3ccc(F)c(C(=O)O)c3OB2O)c2cc(F)c(O)c(O)c2Cl)C1=O)c1ccc(O)cc1 (stereo partly drawn) [Example 280, (3R)-3-(2-(2-chloro-5-fluoro-3,4-dihydroxyphenyl)-2-(3-(3-(4-hydroxybenzamido)propyl)-2-oxoimidazolidine-1-carboxamido)acetamido)-7-fluoro-2-hydroxy-3,4-dihydro-2H-benzo[e][1,2]oxaborinine-8-carboxylic acid]
IC50 [1]: < 10 µM | EC50 (A. baumannii PBP1a): 10 to 50 µM | EC50 (A. baumannii PBP2): 10 to 50 µM | MIC (P. aeruginosa CDC-0095): 8 to 16 µg/mL (≈ 10.9 to 21.9 µM) | MIC (A. baumannii CDC-0033): 2 to 4 µg/mL (≈ 2.73 to 5.47 µM) | MIC (A. baumannii CDC-0045): < 1 µg/mL

O=C(NCCCN1CCN(C(=O)N[C@@H](C(=O)N[C@H]2Cc3ccc(F)c(C(=O)O)c3OB2O)c2cc(F)c(O)c(O)c2Cl)C1=O)Nc1ccc(O)cc1 [Example 284, (R)-3-((R)-2-(2-chloro-5-fluoro-3,4-dihydroxyphenyl)-2-(3-(3-(3-(4-hydroxyphenyl)ureido)propyl)-2-oxoimidazolidine-1-carboxamido)acetamido)-7-fluoro-2-hydroxy-3,4-dihydro-2H-benzo[e][1,2]oxaborinine-8-carboxylic acid]
IC50 [1]: < 10 µM | EC50 (A. baumannii PBP1a): < 10 µM | EC50 (A. baumannii PBP2): < 10 µM | MIC (P. aeruginosa CDC-0095): < 1 µg/mL | MIC (A. baumannii CDC-0033): < 1 µg/mL | MIC (A. baumannii CDC-0045): < 1 µg/mL

O=C(NCCCN1CCN(C(=O)NC(C(=O)N[C@H]2Cc3ccc(F)c(C(=O)O)c3OB2O)c2cc(F)c(O)c(O)c2Cl)C1=O)Nc1ccncc1 (stereo partly drawn) [Example 285, (3R)-3-(2-(2-chloro-5-fluoro-3,4-dihydroxyphenyl)-2-(2-oxo-3-(3-(3-(pyridin-4-yl)ureido)propyl)imidazolidine-1-carboxamido)acetamido)-7-fluoro-2-hydroxy-3,4-dihydro-2H-benzo[e][1,2]oxaborinine-8-carboxylic acid]
IC50 [1]: < 10 µM | EC50 (A. baumannii PBP1a): 10 to 50 µM | EC50 (A. baumannii PBP2): 10 to 50 µM | MIC (P. aeruginosa CDC-0095): > 128 µg/mL | MIC (A. baumannii CDC-0033): 8 to 16 µg/mL (≈ 10.9 to 21.9 µM) | MIC (A. baumannii CDC-0045): 2 to 4 µg/mL (≈ 2.73 to 5.47 µM)

O=C(NCCS(=O)(=O)N1CCN(C(=O)N[C@@H](C(=O)N[C@H]2Cc3ccc(F)c(C(=O)O)c3OB2O)c2cc(F)c(O)c(O)c2Cl)C1=O)c1ccc(O)cc1 [Example 287, (R)-3-((R)-2-(2-chloro-5-fluoro-3,4-dihydroxyphenyl)-2-(3-((2-(4-hydroxybenzamido)ethyl)sulfonyl)-2-oxoimidazolidine-1-carboxamido)acetamido)-7-fluoro-2-hydroxy-3,4-dihydro-2H-benzo[e][1,2]oxaborinine-8-carboxylic acid]
IC50 [1]: < 10 µM | EC50 (A. baumannii PBP1a): 10 to 50 µM | EC50 (A. baumannii PBP2): < 10 µM | MIC (P. aeruginosa CDC-0095): 2 to 4 µg/mL (≈ 2.56 to 5.12 µM) | MIC (A. baumannii CDC-0033): < 1 µg/mL | MIC (A. baumannii CDC-0045): < 1 µg/mL
